Tests used:
[1] = biological target: Type 1 fimbrin D-mannose specific adhesin (Escherichia coli K-12, UniProt P08191); assay: Antagonist activity at recombinant 6His-tagged thrombin cleavage site of FimH Lectin domain expressed in Escherichia coli HM125 assessed as dissociation constant incubated for 24 hrs in presence of FITC-labeled tracer by competitive fluorescence polarization assay
[2] = Antagonist activity at recombinant 6His-tagged thrombin cleavage site of FimH Lectin domain R98A mutant expressed in Escherichia coli HM125 assessed as dissociation constant measured after 24 hrs by fluorescence polarization assay

Sequence of Type 1 fimbrin D-mannose specific adhesin (P08191 whole entry, the tested form may be a part): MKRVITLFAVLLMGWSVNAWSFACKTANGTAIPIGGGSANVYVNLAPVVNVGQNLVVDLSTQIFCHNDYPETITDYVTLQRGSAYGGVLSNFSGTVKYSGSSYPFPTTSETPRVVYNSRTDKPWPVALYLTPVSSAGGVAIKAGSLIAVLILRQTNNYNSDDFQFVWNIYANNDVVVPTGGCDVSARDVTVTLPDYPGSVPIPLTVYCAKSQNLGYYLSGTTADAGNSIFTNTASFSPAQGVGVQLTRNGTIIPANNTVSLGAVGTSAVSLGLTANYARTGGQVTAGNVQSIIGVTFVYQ

Row | SMILES | Kd [1] [µM] | Kd [2] [µM]
1 | O=C(O)CCCCCOc1ccc(-c2cn([C@H]3O[C@H](CO)[C@@H](O)[C@H](O)[C@@H]3O)nn2)cc1 | 0.0367 | 0.0075
2 | CCOC(=O)CCCCCOc1ccc(-c2cn([C@H]3O[C@H](CO)[C@@H](O)[C@H](O)[C@@H]3O)nn2)cc1 | 0.0326 | 0.0066
3 | CCOC(=O)CCCCCOc1cccc(-c2cn([C@H]3O[C@H](CO)[C@@H](O)[C@H](O)[C@@H]3O)nn2)c1 | 0.0488 | 0.0115
4 | O=C(O)CCCCOc1ccc(-c2cn([C@H]3O[C@H](CO)[C@@H](O)[C@H](O)[C@@H]3O)nn2)cc1 | 0.0485 | 0.0112
5 | COC(=O)COc1cccc(-c2cn([C@H]3O[C@H](CO)[C@@H](O)[C@H](O)[C@@H]3O)nn2)c1 | 0.175 | 0.0223
6 | O=C(O)CCCCCOc1cccc(-c2cn([C@H]3O[C@H](CO)[C@@H](O)[C@H](O)[C@@H]3O)nn2)c1 | 0.056 | 0.0173
7 | O=C(O)CCCOc1ccc(-c2cn([C@H]3O[C@H](CO)[C@@H](O)[C@H](O)[C@@H]3O)nn2)cc1 | 0.0633 | 0.00945
8 | O=C(O)CCCOc1cccc(-c2cn([C@H]3O[C@H](CO)[C@@H](O)[C@H](O)[C@@H]3O)nn2)c1 | 0.178 | 0.0207
9 | O=C(O)COc1ccc(-c2cn([C@H]3O[C@H](CO)[C@@H](O)[C@H](O)[C@@H]3O)nn2)cc1 | 0.171 | 0.0146
10 | COC(=O)CCCOc1cccc(-c2cn([C@H]3O[C@H](CO)[C@@H](O)[C@H](O)[C@@H]3O)nn2)c1 | 0.143 | 0.016
11 | O=C(O)CCCCCCOc1cccc(-c2cn([C@H]3O[C@H](CO)[C@@H](O)[C@H](O)[C@@H]3O)nn2)c1 | 0.533 | 0.0632
12 | CCOC(=O)CCCOc1ccc(-c2cn([C@H]3O[C@H](CO)[C@@H](O)[C@H](O)[C@@H]3O)nn2)cc1 | 0.0607 | 0.00807
13 | COC(=O)COc1ccc(-c2cn([C@H]3O[C@H](CO)[C@@H](O)[C@H](O)[C@@H]3O)nn2)cc1 | 0.0662 | 0.00722
14 | O=C(O)COc1cccc(-c2cn([C@H]3O[C@H](CO)[C@@H](O)[C@H](O)[C@@H]3O)nn2)c1 | 0.356 | 0.029
15 | O=C(O)CCCCCCCOc1cccc(-c2cn([C@H]3O[C@H](CO)[C@@H](O)[C@H](O)[C@@H]3O)nn2)c1 | > 1 | 
16 | CCCCCCCO[C@H]1O[C@H](CO)[C@@H](O)[C@H](O)[C@@H]1O | 0.0368 | 0.0356
17 | CCOC(=O)CCCCCCOc1ccc(-c2cn([C@H]3O[C@H](CO)[C@@H](O)[C@H](O)[C@@H]3O)nn2)cc1 | 0.0076 | 0.0013
18 | O=C(O)CCCCCCOc1ccc(-c2cn([C@H]3O[C@H](CO)[C@@H](O)[C@H](O)[C@@H]3O)nn2)cc1 | 0.0378 | 0.0076
19 | CCOC(=O)CCCCCCCOc1cccc(-c2cn([C@H]3O[C@H](CO)[C@@H](O)[C@H](O)[C@@H]3O)nn2)c1 | 0.107 | 0.025
20 | O=C(O)CCCCCCCOc1ccc(-c2cn([C@H]3O[C@H](CO)[C@@H](O)[C@H](O)[C@@H]3O)nn2)cc1 | 0.0447 | 0.0101
21 | O=C(O)CCCCOc1cccc(-c2cn([C@H]3O[C@H](CO)[C@@H](O)[C@H](O)[C@@H]3O)nn2)c1 | 0.0785 | 0.0163
22 | CCOC(=O)CCCCCCCOc1ccc(-c2cn([C@H]3O[C@H](CO)[C@@H](O)[C@H](O)[C@@H]3O)nn2)cc1 | 0.0428 | 0.0088
23 | OC[C@H]1O[C@H](n2cc(-c3ccccc3)nn2)[C@@H](O)[C@@H](O)[C@@H]1O | 0.336 | 0.297
24 | CCOC(=O)CCCCOc1cccc(-c2cn([C@H]3O[C@H](CO)[C@@H](O)[C@H](O)[C@@H]3O)nn2)c1 | 0.065 | 0.0162
25 | CCOC(=O)CCCCOc1ccc(-c2cn([C@H]3O[C@H](CO)[C@@H](O)[C@H](O)[C@@H]3O)nn2)cc1 | 0.0506 | 0.0101
26 | CCOC(=O)CCCCCCOc1cccc(-c2cn([C@H]3O[C@H](CO)[C@@H](O)[C@H](O)[C@@H]3O)nn2)c1 | 0.0691 | 0.0134
